Test results as given in US9968649B2, “Vasopressin formulations for use in treatment of hypotension” (Par Pharmaceutical, Inc., priority 2015, dated 2018).
Where “and” joins values, the source holds several entries; their conditions need not be identical. Identical values can stand only once.

Experiment: Effect of temperature on vasopressin formulations: HPLC vasopressin assay and impurities on storage (Example 8)
Type: physicochemical
Description: To analyze degradation products of vasopressin that can be present in an illustrative formulation of vasopressin, gradient HPLC was performed to separate vasopressin from related peptides and formulation components. TABLE 2 below depicts the results of the experiment detailing the chemical formula, relative retention time (RRT), molar mass, and structure of vasopressin and detected impurities.
Vasopressin was detected in the eluent using UV absorbance. The concentration of vasopressin in the sample was determined by the external standard method, where the peak area of vasopressin in sample injections was compared to the peak area of vasopressin reference standards in a solution of known concentration. The concentrations of related peptide impurities in the sample were also determined using the external standard method, using the vasopressin reference standard peak area and a unit relative response factor. An impurities marker solution was used to determine the relative retention times of identified related peptides at the time of analysis.
To test the effect of temperature on the stability of vasopressin formulation, solutions containing 20 units/mL vasopressin and chlorobutanol, adjusted to pH 3.5 with acetic acid, were prepared. One mL of each vasopressin formulations was then filled into 3 cc vials. Each Vasopressin Formulation was stored either inverted or upright for at least three months, up to 24 months, at: (i) 5° C.; (ii) 25° C. and 60% relative humidity; or (iii) 40° C. and 75% humidity, and the amount of vasopressin (U/mL) and % total impurities were measured periodically. TABLES 7-12 below display the results of the experiments at 5° C. The results of the experiments at 25° C. are included in TABLES 13-18. All of the experiments were performed in triplicate. The results of the experiments at 40° C. are included in TABLES 19-24. For each temperature tested, three lots of the vasopressin formulation were stored for 24 months (5° C. and 25° C.) and 3 months (40° C.), and measurements were taken at regular intervals during the testing periods. “NMT” as used in the tables denotes “not more than.”
Experiments were also conducted on the same samples above over the course of the experiments to measure the amount of individual impurities in the samples, pH of the samples, chlorobutanol content, particulate matter, antimicrobial effectiveness, and bacterial endotoxin levels (TABLES 25-42). (NR=no reading; ND=not determined; UI=unidentified impurity).

[1] = inverted, 5° C., Initial, listed as AVP
[2] = inverted, 25° C. and 60% Relative Humidity, 3 months, listed as AVP
[3] = inverted, 25° C. and 60% Relative Humidity, 6 months, listed as AVP
[4] = inverted, 25° C. and 60% Relative Humidity, 9 months, listed as AVP
[5] = inverted, 25° C. and 60% Relative Humidity, 12 months, listed as AVP
[6] = inverted, 25° C. and 60% Relative Humidity, 24 months, listed as AVP
[7] = inverted, 25° C. and 60% Relative Humidity, Initial, listed as AVP
[8] = inverted, 40° C. (75% humidity), 1 month
[9] = inverted, 40° C. (75% humidity), 2 months
[10] = inverted, 40° C. (75% humidity), 3 months
[11] = inverted, 40° C. (75% humidity), Initial
[12] = upright, 5° C., 1 month, listed as AVP
[13] = upright, 5° C., 2 months, listed as AVP
[14] = upright, 5° C., 3 months, listed as AVP
[15] = upright, 5° C., 6 months, listed as AVP
[16] = upright, 5° C., 9 months, listed as AVP
[17] = upright, 5° C., 12 months, listed as AVP
[18] = upright, 5° C., 18 months, listed as AVP
[19] = upright, 5° C., 24 months, listed as AVP
[20] = upright, 5° C., Initial, listed as AVP
[21] = upright, 25° C. and 60% Relative Humidity, 3 months, listed as AVP
[22] = upright, 25° C. and 60% Relative Humidity, 6 months, listed as AVP
[23] = upright, 25° C. and 60% Relative Humidity, 9 months, listed as AVP
[24] = upright, 25° C. and 60% Relative Humidity, 12 months, listed as AVP
[25] = upright, 25° C. and 60% Relative Humidity, 18 months, listed as AVP
[26] = upright, 25° C. and 60% Relative Humidity, 24 months, listed as AVP
[27] = upright, 25° C. and 60% Relative Humidity, Initial, listed as AVP

SMILES: NC(=O)CC[C@@H]1NC(=O)[C@H](Cc2ccccc2)NC(=O)[C@H](Cc2ccc(O)cc2)NC(=O)[C@@H](N)CSSC[C@@H](C(=O)N2CCC[C@H]2C(=O)N[C@@H](CCCN=C(N)N)C(=O)NCC(N)=O)NC(=O)[C@H](CC(N)=O)NC1=O [Vasopressin, Cyclo (1-6) L-Cysteinyl-L-Tyrosyl-L-Phenylalanyl-L-Glutaminyl-L-Asparaginyl-L-Cysteinyl-L-Prolyl-L-Arginyl-L-Glycinamide]
- Related Substances: Acetyl-AVP (inverted, 5° C., Initial): 0.3%
- Related Substances: Asp5-AVP (inverted, 5° C., Initial): 0.1%
- Related Substances: SEQ ID NO.: 2 (inverted, 5° C., Initial): 0.5% and 0.6%
- Related Substances: SEQ ID NO.: 4 (inverted, 5° C., Initial): 0.6% and 0.5%
- Related Substances: SEQ ID NO.: 10 (inverted, 5° C., Initial): 0.3%
- Related Substances: UI-0.75-0.78 (inverted, 5° C., Initial): 0.2%
- Related Substances: UI-0.83-0.84 (inverted, 5° C., Initial): 0.1%
- Related Substances: UI-1.02-1.03 (inverted, 5° C., Initial): 0.2%
- Related Substances: UI-1.03 (inverted, 5° C., Initial): 0.2%
- Related Substances: UI-1.85 (inverted, 5° C., Initial): 0.2%
- Related Substances: UI-2.05 (inverted, 5° C., Initial): 0.1% and 0.2%
- Vasopressin (AVP) Assay (inverted, 5° C., Initial): 19.4 U/mL and 19.7 U/mL
- Total Impurities [1]: 2.3% and 2.7% and 2.2%
- Vasopressin (AVP) Assay [1]: 19.4 U/mL and 19.7 U/mL
- AVP Assay [2]: 19.4 U/mL and 19.7 U/mL and 19.6 U/mL
- Total Impurities [2]: 2.4% and 2.5% and 2.6%
- AVP Assay [3]: 19.1 U/mL and 19.3 U/mL and 19.2 U/mL
- Total Impurities [3]: 3.7% and 3.4% and 3.3%
- AVP Assay [4]: 18.8 U/mL and 19 U/mL
- Total Impurities [4]: 4.7% and 4.6%
- AVP Assay [5]: 18.3 U/mL and 18.6 U/mL and 18.7 U/mL
- Total Impurities [5]: 5.9% and 5.6%
- Total Impurities (inverted, 25° C. and 60% Relative Humidity, 18 months): 9.0%
- AVP Assay (inverted, 25° C. and 60% Relative Humidity, 18 months, listed as AVP): 17.5 U/mL and 17.6 U/mL and 18 U/mL
- AVP Assay [6]: 17.3 U/mL and 17.6 U/mL and 17.4 U/mL
- Total Impurities [6]: 13.6% and 13.4% and 12.9%
- AVP Assay [7]: 19.8 U/mL and 20.1 U/mL and 19.9 U/mL
- Total Impurities [7]: 1.1% and 1.3% and 1.5%
- Total Impurities [8]: 3.7% and 3.6%
- Vasopressin Assay [8]: 19.1 U/mL and 19.3 U/mL and 19.2 U/mL
- Total Impurities [9]: 7.3%
- Vasopressin Assay [9]: 18.6 U/mL and 18.7 U/mL and 18.3 U/mL
- Total Impurities [10]: 10.6% and 10.3%
- Vasopressin Assay [10]: 17.3 U/mL and 17.6 U/mL and 17.4 U/mL
- Total Impurities [11]: 1.1% and 1.3%
- Vasopressin Assay [11]: 19.8 U/mL and 20.1 U/mL and 19.9 U/mL
- Related Substances: Acetyl-AVP (inverted, 40° C., 1 month): 0.2%
- Related Substances: Asp5-AVP (inverted, 40° C., 1 month): 0.2%
- Related Substances: D-Asn-AVP (inverted, 40° C., 1 month): 0.4%
- Related Substances: SEQ ID NO.: 2 (inverted, 40° C., 1 month): 1.0%
- Related Substances: SEQ ID NO.: 4 (inverted, 40° C., 1 month): 1.1%
- Related Substances: UI-0.13 (inverted, 40° C., 1 month): 0.1%
- Related Substances: UI-1.02-1.03 (inverted, 40° C., 1 month): 0.3%
- Related Substances: UI-1.56-1.57 (inverted, 40° C., 1 month): 0.2%
- Related Substances: UI-1.93 (inverted, 40° C., 1 month): 0.1%
- Related Substances: Acetyl-AVP (inverted, 40° C., 2 months): 0.2%
- Related Substances: Asp5-AVP (inverted, 40° C., 2 months): 0.5%
- Related Substances: D-Asn-AVP (inverted, 40° C., 2 months): 0.3%
- Related Substances: SEQ ID NO.: 2 (inverted, 40° C., 2 months): 2.4%
- Related Substances: SEQ ID NO.: 4 (inverted, 40° C., 2 months): 2.7%
- Related Substances: UI-1.02-1.03 (inverted, 40° C., 2 months): 0.2%
- Related Substances: UI-1.56-1.57 (inverted, 40° C., 2 months): 0.4%
- Related Substances: UI-1.83-1.85 (inverted, 40° C., 2 months): 0.2%
- Related Substances: UI-1.87-1.88 (inverted, 40° C., 2 months): 0.2%
- Related Substances: UI-2.05-2.08 (inverted, 40° C., 2 months): 0.2%
- Related Substances: Acetyl-AVP (inverted, 40° C., 3 months): 0.2%
- Related Substances: Asp5-AVP (inverted, 40° C., 3 months): 0.8%
- Related Substances: D-Asn-AVP (inverted, 40° C., 3 months): 0.3%
- Related Substances: SEQ ID NO.: 2 (inverted, 40° C., 3 months): 3.8%
- Related Substances: SEQ ID NO.: 4 (inverted, 40° C., 3 months): 4.3%
- Related Substances: UI-1.02-1.03 (inverted, 40° C., 3 months): 0.3%
- Related Substances: UI-1.18 (inverted, 40° C., 3 months): 0.2%
- Related Substances: UI-1.56-1.57 (inverted, 40° C., 3 months): 0.4%
- Related Substances: UI-1.83-1.85 (inverted, 40° C., 3 months): 0.2%
- Related Substances: UI-1.87-1.88 (inverted, 40° C., 3 months): 0.2%
- Related Substances: Acetyl-AVP (inverted, 40° C., Initial): 0.3%
- Related Substances: D-Asn-AVP (inverted, 40° C., Initial): 0.3%
- Related Substances: SEQ ID NO.: 2 (inverted, 40° C., Initial): 0.1%
- Related Substances: SEQ ID NO.: 4 (inverted, 40° C., Initial): 0.1%
- Related Substances: UI-1.02-1.03 (inverted, 40° C., Initial): 0.2%
- AVP Assay [12]: 19.5 U/mL and 19.7 U/mL
- Total Impurities [12]: 2.1% and 1.8%
- AVP Assay [13]: 19.4 U/mL and 19.6 U/mL
- Total Impurities [13]: 2.1% and 2.2% and 2.0%
- AVP Assay [14]: 19.4 U/mL and 19.7 U/mL
- Total Impurities [14]: 2.3% and 2.2%
- AVP Assay [15]: 19.5 U/mL and 19.8 U/mL
- Total Impurities [15]: 2.1% and 2.2%
- AVP Assay [16]: 19.5 U/mL and 19.7 U/mL
- Total Impurities [16]: 2.3% and 2.1%
- AVP Assay [17]: 19.5 U/mL and 19.8 U/mL and 19.9 U/mL
- Total Impurities [17]: 2.5% and 2.6% and 2.4%
- AVP Assay [18]: 19.4 U/mL and 19.7 U/mL and 19.8 U/mL
- Total Impurities [18]: 2.9% and 2.8%
- AVP Assay [19]: 19.3 U/mL and 19.5 U/mL
- Total Impurities [19]: 2.9% and 2.8% and 2.7%
- AVP Assay [20]: 19.4 U/mL and 19.7 U/mL
- Total Impurities [20]: 2.3% and 2.7% and 2.2%
- AVP Assay [21]: 19.4 U/mL and 19.7 U/mL and 19.6 U/mL
- Total Impurities [21]: 2.4% and 2.5%
- AVP Assay [22]: 19.1 U/mL and 19.4 U/mL and 19.2 U/mL
- Total Impurities [22]: 3.2% and 3.3% and 3.7%
- AVP Assay [23]: 18.8 U/mL and 18.9 U/mL and 19 U/mL
- Total Impurities [23]: 4.8% and 4.5% and 4.7%
- AVP Assay [24]: 18.3 U/mL and 18.6 U/mL and 18.5 U/mL
- Total Impurities [24]: 5.6% and 5.7% and 5.9%
- AVP Assay (upright, 25° C. and 60% Relative Humidity, 18 months): 18.1 U/mL
- AVP Assay [25]: 17.5 U/mL and 17.8 U/mL
- Total Impurities [25]: 9.2% and 9.1%
- Total Impurities (upright, 25° C. and 60% Relative Humidity, 24 months): 13.3%
- AVP Assay [26]: 17.4 U/mL and 17.7 U/mL
- Total Impurities [26]: 13.1%
- AVP Assay [27]: 19.8 U/mL and 20.1 U/mL and 19.9 U/mL
- Total Impurities [27]: 1.1% and 1.3% and 1.5%
